Laboratory results published in patent US20110105515A1, “TARGETING THE ONCOPROTEIN NUCLEOPHOSMIN” (President and Fellows of Harvard College, priority 2007, published 2011).

Tests used:
SNB-19 = SNB-19 (CNS Cancer), 48 hours, SRB
T-47D = T-47D (Breast Cancer), 48 hours, SRB
OVCAR-5 = OVCAR-5 (Ovarian Cancer), 48 hours, SRB
HS578T = HS578T (Breast Cancer), 48 hours, SRB
SK-MEL-5 = SK-MEL-5 (Melanoma), 48 hours, SRB
HCT-15 = HCT-15 (Colon Cancer), 48 hours, SRB
HL-60(TB) = HL-60(TB) (Leukemia), 48 hours, SRB
A549/ATCC = A549/ATCC (Non-Small Cell Lung Cancer), 48 hours, SRB
SN12C = SN12C (Renal Cancer), 48 hours, SRB
KM12 = KM12 (Colon Cancer), 48 hours, SRB
NCI-H23 = NCI-H23 (Non-Small Cell Lung Cancer), 48 hours, SRB
UACC62 = UACC62 (Melanoma), 48 hours, SRB
SF-539 = SF-539 (CNS Cancer), 48 hours, SRB
OVCAR-3 = OVCAR-3 (Ovarian Cancer), 48 hours, SRB
K-562 = K-562 (Leukemia), 48 hours, SRB
SK-OV-3 = SK-OV-3 (Ovarian Cancer), 48 hours, SRB
OVCAR-8 = OVCAR-8 (Ovarian Cancer), 48 hours, SRB
HOP-62 = HOP-62 (Non-Small Cell Lung Cancer), 48 hours, SRB
RPMI-8226 = RPMI-8226 (Leukemia), 48 hours, SRB
OVCAR-4 = OVCAR-4 (Ovarian Cancer), 48 hours, SRB
EKVX = EKVX (Non-Small Cell Lung Cancer), 48 hours, SRB
NCI-H460 = NCI-H460 (Non-Small Cell Lung Cancer), 48 hours, SRB
UACC-257 = UACC-257 (Melanoma), 48 hours, SRB
U251 = U251 (CNS Cancer), 48 hours, SRB
MOLT-4 = MOLT-4 (Leukemia), 48 hours, SRB
ACHN = ACHN (Renal Cancer), 48 hours, SRB
UO-31 = UO-31 (Renal Cancer), 48 hours, SRB
CCRF-CEM = CCRF-CEM (Leukemia), 48 hours, SRB
MCF7 = MCF7 (Breast Cancer), 48 hours, SRB
SF-295 = SF-295 (CNS Cancer), 48 hours, SRB
LOX IMVI = LOX IMVI (Melanoma), 48 hours, SRB
RXF 393 = RXF 393 (Renal Cancer), 48 hours, SRB

`Cc1cc(C)cc(-c2ccc3c(c2)[N+]([O-])=C2C3=C[C@@]34NC(=O)C5(CCCN5C3=O)CC4C2(C)C)c1` (stereo partly drawn) [Biphenyl Analogue] gave a TGI (SNB-19) of 0.95 µM, a TGI (T-47D) of 0.33 µM and a TGI (OVCAR-5) of 1.7 µM. For the same compound, the TGI (HS578T) was 18.9 µM, the TGI (SK-MEL-5) was 0.324 µM and the TGI (HCT-15) was 0.322 µM. For the same compound, the TGI (HL-60(TB)) was 0.655 µM, the TGI (A549/ATCC) was 0.834 µM and the TGI (SN12C) was 0.614 µM. For the same compound, the TGI (KM12) was 0.74 µM, the TGI (NCI-H23) was 0.84 µM and the TGI (UACC62) was 0.471 µM. The TGI (SF-539) was 0.445 µM, the TGI (OVCAR-3) was 0.395 µM and the TGI (K-562) was 0.358 µM. It also gave a TGI (SK-OV-3) of 1.19 µM, a TGI (OVCAR-8) of 1.03 µM and a TGI (HOP-62) of 3.32 µM. For the same compound, the TGI (RPMI-8226) was 0.0486 µM, the TGI (OVCAR-4) was 1.72 µM and the TGI (EKVX) was 1.11 µM. For the same compound, the TGI (NCI-H460) was 1.18 µM, the TGI (UACC-257) was 1.36 µM and the TGI (U251) was 0.273 µM. The TGI (MOLT-4) was 0.604 µM, the TGI (ACHN) was 0.618 µM and the TGI (UO-31) was 0.731 µM. It also gave a TGI (CCRF-CEM) of 0.421 µM, a TGI (MCF7) of 0.984 µM and a TGI (SF-295) of 1.54 µM. It also gave a TGI (LOX IMVI) of 0.273 µM.
`CN(C)c1cccc2c(S(=O)(=O)NCCCCCCCCCCOc3ccc4c(c3)[N+]([O-])=C3C4=C[C@@]45NC(=O)C6(CCCN6C4=O)CC5C3(C)C)cccc12` (stereo partly drawn) [Dansyl Analogue] gave a GI50 (SNB-19) of 0.359 µM, a TGI (SNB-19) of 1.44 µM and a CC50 (SNB-19; read-out: LC50) of 4.1 µM. The GI50 (T-47D) was 0.152 µM, the TGI (T-47D) was 0.572 µM and the CC50 (T-47D; read-out: LC50) was 3.14 µM. The GI50 (OVCAR-5) was 1.46 µM, the TGI (OVCAR-5) was 2.96 µM and the CC50 (OVCAR-5; read-out: LC50) was 5.97 µM. For the same compound, the GI50 (HS578T) was 0.355 µM, the TGI (HS578T) was 36.9 µM and the CC50 (HS578T; read-out: LC50) was over 100 µM. It also gave a GI50 (SK-MEL-5) of 0.373 µM, a TGI (SK-MEL-5) of 1.47 µM and a CC50 (SK-MEL-5; read-out: LC50) of 3.84 µM. It also gave a GI50 (HCT-15) of 0.484 µM, a TGI (HCT-15) of 1.75 µM and a CC50 (HCT-15; read-out: LC50) of 4.18 µM. The GI50 (HL-60(TB)) was 0.211 µM, the TGI (HL-60(TB)) was 1.16 µM and the CC50 (HL-60(TB); read-out: LC50) was over 100 µM. It also gave a GI50 (A549/ATCC) of 2.17 µM, a TGI (A549/ATCC) of 5.37 µM and a CC50 (A549/ATCC; read-out: LC50) of 18.1 µM. It also gave a GI50 (SN12C) of 0.401 µM, a TGI (SN12C) of 6.81 µM and a CC50 (SN12C; read-out: LC50) of 31.7 µM. It also gave a GI50 (KM12) of 1.25 µM, a TGI (KM12) of 2.88 µM and a CC50 (KM12; read-out: LC50) of 6.6 µM. For the same compound, the GI50 (NCI-H23) was 0.581 µM, the TGI (NCI-H23) was 2.48 µM and the CC50 (NCI-H23; read-out: LC50) was 9.05 µM. For the same compound, the GI50 (UACC62) was 0.565 µM, the TGI (UACC62) was 1.88 µM and the CC50 (UACC62; read-out: LC50) was 4.88 µM. It also gave a GI50 (SF-539) of 0.215 µM, a TGI (SF-539) of 0.545 µM and a CC50 (SF-539; read-out: LC50) of 1.89 µM. It also gave a GI50 (RXF 393) of 0.611 µM, a TGI (RXF 393) of 5.92 µM and a CC50 (RXF 393; read-out: LC50) of 44.4 µM. The GI50 (OVCAR-3) was 0.201 µM, the TGI (OVCAR-3) was 0.413 µM and the CC50 (OVCAR-3; read-out: LC50) was 0.849 µM. The TGI (K-562) was 64.4 µM, the GI50 (SK-OV-3) was 1.65 µM and the TGI (SK-OV-3) was 4.13 µM. For the same compound, the CC50 (SK-OV-3; read-out: LC50) was 10.8 µM, the GI50 (OVCAR-8) was 0.759 µM and the TGI (OVCAR-8) was 11 µM. It also gave a CC50 (OVCAR-8; read-out: LC50) of over 100 µM, a GI50 (HOP-62) of 2.38 µM and a TGI (HOP-62) of 4.64 µM. The CC50 (HOP-62; read-out: LC50) was 9.02 µM, the GI50 (RPMI-8226) was 0.282 µM and the TGI (RPMI-8226) was over 100 µM. The CC50 (RPMI-8226; read-out: LC50) was over 100 µM, the GI50 (OVCAR-4) was 0.348 µM and the TGI (OVCAR-4) was 7.42 µM. For the same compound, the CC50 (OVCAR-4; read-out: LC50) was 32.2 µM, the GI50 (EKVX) was 0.54 µM and the TGI (EKVX) was 3.63 µM. It also gave a CC50 (EKVX; read-out: LC50) of 37 µM, a GI50 (NCI-H460) of 0.7 µM and a TGI (NCI-H460) of 1.99 µM. For the same compound, the CC50 (NCI-H460; read-out: LC50) was 4.64 µM, the GI50 (UACC-257) was 1.02 µM and the TGI (UACC-257) was 2.81 µM. The CC50 (UACC-257; read-out: LC50) was 7.74 µM, the GI50 (U251) was 0.175 µM and the TGI (U251) was 0.334 µM. For the same compound, the CC50 (U251; read-out: LC50) was 0.64 µM, the GI50 (MOLT-4) was 0.276 µM and the CC50 (MOLT-4; read-out: LC50) was over 100 µM. The GI50 (ACHN) was 0.736 µM, the TGI (ACHN) was 2.7 µM and the CC50 (ACHN; read-out: LC50) was 8.56 µM. The GI50 (UO-31) was 0.48 µM, the TGI (UO-31) was 2.08 µM and the CC50 (UO-31; read-out: LC50) was 6.48 µM. For the same compound, the GI50 (CCRF-CEM) was 0.246 µM, the TGI (CCRF-CEM) was over 100 µM and the CC50 (CCRF-CEM; read-out: LC50) was over 100 µM. For the same compound, the GI50 (MCF7) was 0.232 µM, the TGI (MCF7) was 0.724 µM and the CC50 (MCF7; read-out: LC50) was 2.61 µM. It also gave a GI50 (SF-295) of 1.73 µM, a TGI (SF-295) of 4.63 µM and a CC50 (SF-295; read-out: LC50) of 49.4 µM. The GI50 (LOX IMVI) was 0.166 µM, the TGI (LOX IMVI) was 0.31 µM and the CC50 (LOX IMVI; read-out: LC50) was 0.579 µM.
`[2H]On1c2c(c3ccc4c(c31)C=CC(C)(C)O4)C(OC([2H])([2H])[2H])[C@@]13NC(=O)C4(CCCN4C1=O)CC3C2(C)C` (stereo partly drawn) [Deuterated Methanol Adduct] gave a TGI (SNB-19) of 2.31 µM, a TGI (T-47D) of 1.38 µM and a TGI (OVCAR-5) of 1.91 µM. It also gave a TGI (HS578T) of 2.17 µM, a TGI (SK-MEL-5) of 2.71 µM and a TGI (HCT-15) of 1.77 µM. The TGI (HL-60(TB)) was 1.45 µM, the TGI (A549/ATCC) was 2.99 µM and the TGI (SN12C) was 2.32 µM. It also gave a TGI (KM12) of 2.52 µM, a TGI (NCI-H23) of 2.43 µM and a TGI (UACC62) of 1.92 µM. The TGI (SF-539) was 1.46 µM, the TGI (RXF 393) was 0.625 µM and the TGI (OVCAR-3) was 1.81 µM. The TGI (K-562) was 3.07 µM, the TGI (SK-OV-3) was 2.16 µM and the TGI (OVCAR-8) was 2.17 µM. The TGI (HOP-62) was 7.03 µM, the TGI (RPMI-8226) was 0.298 µM and the TGI (OVCAR-4) was 1.63 µM. The TGI (EKVX) was 1.97 µM, the TGI (NCI-H460) was 3.6 µM and the TGI (UACC-257) was 1.89 µM. The TGI (U251) was 1.37 µM, the TGI (MOLT-4) was 1.38 µM and the TGI (ACHN) was 2.53 µM. The TGI (UO-31) was 1.84 µM, the TGI (CCRF-CEM) was 0.704 µM and the TGI (MCF7) was 1.33 µM. For the same compound, the TGI (SF-295) was 2.73 µM and the TGI (LOX IMVI) was 2.14 µM.
